Measured values published in paper PMC7321065, “Discovery of New Schiff Bases Tethered Pyrazole Moiety: Design, Synthesis, Biological Evaluation, and Molecular Docking Study as Dual Targeting DHFR/DNA Gyrase Inhibitors with Immunomodulatory Activity” (Molecules, 2020).
≈ marks a conversion by molar mass, not a printed value.

Experiments:
[1] = test system: P. aeruginosa ATCC BAA-2111; assay: Inhibition zone against MDRB, agar plate diffusion; type: cell-based
[2] = test system: Pseudomonas aeruginosa; assay: MIC/MBC, paper disk diffusion; type: cell-based; settings: Pseudomonas aeruginosa; for MBC: P. aeruginosa
Method: (§1) Antimicrobial activities of the newly formed Schiff bases (6a–d, 7a–d, 8a–d, and 9a–d) and reference drugs were evaluated against three Gram-positive, three Gram-negative, and two fungi strain at Al-Azhar University, Cairo, Egypt. The inhibition zones (IZ, in mm ± standard deviation) and the minimal inhibitory concentration (MIC) (μg/mL) were determined by the conventional paper disk diffusion method.
(§2) In Vitro Antimicrobial Activities […]
(§3) DMSO was used for dissolving […]
(§4) the tested microorganisms.
(§5) The minimum inhibitory concentration (MIC), the minimum bactericidal concentration (MBC, µg/ml) and […]
(§6) and 9b) were determined by the conventional technique termed paper disk diffusion, by applying paper […]
(§7) Bacteria were grown on nutrient agar medium, while fungi and yeast were grown on Sabouraud agar medium. The purified streptomycin was dissolved in […]
(§8) inoculated with test organism. Growth inhibition was examined after 24 hr. from incubation at 37 °C for bacteria and after 72 hr. incubation at 27 °C for fungi and yeast. Each test was repeated three times. MIC was expressed as the lowest concentration inhibiting test organism’s growth. […]

[3] = test system: Escherichia coli; assay: MIC/MBC, paper disk diffusion; type: cell-based; settings: Escherichia coli; for MBC: E. coli
Method: as §1, §2, §3, §4, §5, §6, §7, §8

[4] = test system: Bacillus subtilis; assay: MIC/MBC, paper disk diffusion; type: cell-based; settings: for Fold more potent than Tetracycline (MIC) / MBC: B. subtilis; for MIC / MBC: Bacillus subtilis
Method: as §1, §2, §3, §4, §5, §6, §7, §8

[5] = test system: Enterococcus faecalis; assay: MIC/MBC, paper disk diffusion; type: cell-based; settings: for MBC: E. faecalis
Method: as §1, §2, §3, §4, §5, §6, §7, §8

[6] = test system: Staphylococcus aureus; assay: MIC/MBC, paper disk diffusion; type: cell-based; settings: for MIC / MBC: Staphylococcus aureus
Method: as §1, §2, §3, §4, §5, §6, §7, §8

[7] = test system: Salmonella typhi; assay: MIC/MBC, paper disk diffusion; type: cell-based; settings: for MIC / MBC: Salmonella enterica; for MBC: read-out: MBC
Method: as §1, §2, §3, §4, §5, §6, §7, §8

[8] = test system: E. coli ATCC BAA-196; assay: Inhibition zone against MDRB, agar plate diffusion; type: cell-based
[9] = test system: Pseudomonas aeruginosa; assay: Inhibition zone, agar plate diffusion; type: cell-based; settings: read-out: Inhibition zone (IZ)
Method: as §1
(§9) In Vitro Antimicrobial Activities
(§10) The antimicrobial activities inhibition zone (IZ, mm±standard deviation) of pyrazole Schiff bases ( 6a-d , 7a-d, 8a-d and 9a-d ) was measurement according to the agar plate diffusion method. Briefly, 100 µl of the […]
(§11) […] of each sample (at 0.5 mg/mL) was added to each well (10 mm diameter holes cut in the agar gel). The plates were incubated for 24 h at 37 °C (for bacteria and yeast) and for 72 h at 27 °C (for filamentous fungi), each test was repeated three times. After incubation, the microorganism's growth was observed. […]
(§12) drugs while Amphotericin B was used as standard antifungal drug. The resulting inhibition zone diameters were measured in millimeters and used as criterion for the antimicrobial activity. Solvent controls (DMSO) were included in every experiment as negative controls. DMSO was used for dissolving […]
(§13) the tested microorganisms. […]

[10] = test system: Escherichia coli; assay: Inhibition zone, agar plate diffusion; type: cell-based; settings: read-out: Inhibition zone (IZ)
Method: as §1, §9, §10, §11, §12, §13

[11] = test system: Bacillus subtilis; assay: Inhibition zone, agar plate diffusion; type: cell-based; settings: read-out: Inhibition zone (IZ)
Method: as §1, §9, §10, §11, §12, §13

[12] = test system: Enterococcus faecalis; assay: Inhibition zone, agar plate diffusion; type: cell-based; settings: read-out: Inhibition zone (IZ)
Method: as §1, §9, §10, §11, §12, §13

[13] = test system: hepatocellular carcinoma cell line (HepG2); assay: Antiproliferative activity, MTT assay; type: cell-based, human; settings: for IC50: Homo sapiens, HepG2, 48 h, read-out: IC50 HepG-2
Method: (§14) 3-[4, 5-Dimethyl-2-thiazolyl)-2, 5-diphenyl-2 H-tetrazolium bromide (MTT) protocol is based on the cleavage of the tetrazolium salt by mitochondrial dehydrogenases in viable cells. Cells were dispensed in a 96 well sterile microplate (5 x 10^4 cells/well), and incubated at 37 °C with series of different concentrations, in DMSO, of each tested compound or Doxorubicin ® (positive control) for 48 h in a serum free medium prior to the MTT assay. After incubation, media were carefully removed, 40 µL of MTT (2.5 mg/mL) were added to each well and then incubated for an additional 4 h. The purple formazan dye crystals were solubilized by the addition of 200 µL of DMSO. The absorbance was measured at 590 nm using a SpectraMax® Paradigm® Multi-Mode microplate reader. The relative cell viability was expressed as the mean percentage of viable cells compared to the untreated control cells.
(§15) All experiments were conducted in triplicate and repeated in three different days. All the values were represented as mean ± SD. IC 50s were determined by probit analysis using SPSS software program (SPSS

[14] = test system: mammary gland breast cancer cell line (MCF-7); assay: Antiproliferative activity, MTT assay; type: cell-based, human; settings: Homo sapiens, MCF7, 48 h, read-out: IC50 MCF-7
Method: as §14, §15

[15] = test system: Fusarium oxysporum; assay: MIC/MFC, paper disk diffusion; type: cell-based; settings: Fusarium oxysporum
Method: as §1, §2, §3, §4, §5, §6, §7, §8

[16] = test system: Candida albicans; assay: MIC/MFC, paper disk diffusion; type: cell-based; settings: Candida albicans
Method: as §1, §2, §3, §4, §5, §6, §7, §8

[17] = test system: S. aureus ATCC 43300 (MRSA); assay: Inhibition zone against MDRB, agar plate diffusion; type: cell-based
[18] = test system: Fusarium oxysporum; assay: Inhibition zone, agar plate diffusion; type: cell-based; settings: read-out: Inhibition zone (IZ)
Method: as §1, §9, §10, §11, §12, §13
(§16) Bacteria were grown on nutrient agar medium, while fungi and yeast were grown on Sabouraud agar medium. […]

[19] = test system: Staphylococcus aureus; assay: Inhibition zone, agar plate diffusion; type: cell-based; settings: read-out: Inhibition zone (IZ)
Method: as §1, §9, §10, §11, §12, §13, §16

[20] = test system: Salmonella typhi; assay: Inhibition zone, agar plate diffusion; type: cell-based; settings: Salmonella enterica, St, mm ± standard deviation, sample at 0.5 mg/mL, read-out: Inhibition zone (IZ)
Method: as §1, §9, §10, §11, §12, §13, §16

[21] = test system: Candida albicans; assay: Inhibition zone, agar plate diffusion; type: cell-based; settings: read-out: Inhibition zone (IZ)
Method: as §1, §9, §10, §11, §12, §13, §16

[22] = test system: P. aeruginosa ATCC BAA-2111; assay: MIC/MBC against MDRB, paper disk diffusion; type: cell-based; settings: Pseudomonas aeruginosa, ATCCBAA2111
From the text: (§17) The inhibition zone (IZ, mm±standard deviation) of pyrazole Schiff bases ( 6b, 7b, 7c, 8a, 8d and 9b) was
(§18) measurement according to the agar plate diffusion method against a panel of multidrug-resistant bacteria
(MDRB). […]

[23] = test system: S. aureus ATCC 43300 (MRSA); assay: MIC/MBC against MDRB, paper disk diffusion; type: cell-based; settings: Staphylococcus aureus
From the text: as §17, §18
(MDRB). […]

[24] = test system: E. coli ATCC BAA-196; assay: MIC/MBC against MDRB, paper disk diffusion; type: cell-based; settings: Escherichia coli, ATCCBAA196
From the text: as §17, §18
(MDRB). […]

[25] = test system: S. aureus ATCC 33591; assay: MIC/MBC against MDRB, paper disk diffusion; type: cell-based; settings: Staphylococcus aureus, ATCC33591
From the text: as §17, §18
(MDRB). […]

[26] = test system: S. aureus ATCC 33591; assay: Inhibition zone against MDRB, agar plate diffusion; type: cell-based

COc1ccc(Nc2n[nH]c(N=Cc3c(C)n(C)n(-c4ccccc4)c3=O)c2C(=O)Nc2ccccc2)cc1 [6b, 5-((1,5-Dimethyl-3-oxo-2-phenyl-2,3-dihydro-1H-pyrazol-4-yl)methyleneamino)-3-(p-methoxyphenylamino)-N-phenyl-1H-pyrazole-4-carboxamide]
Mean Diameter of Inhibition Zone against MDRB [1]: 21 ± 0.66 mm
MIC [2]: 31.2 µg/mL (≈ 59.9 µM)
MBC [2]: 53.1 µg/mL (≈ 102 µM)
MIC [3]: 62.5 µg/mL (≈ 120 µM)
MBC [3]: 87.5 µg/mL (≈ 168 µM)
Fold more potent than Tetracycline (MIC) [4]: 4 fold
MIC [4]: 7.81 µg/mL (≈ 15 µM)
MBC [4]: 14.1 µg/mL (≈ 26.9 µM)
MIC [5]: 9.25 µg/mL (≈ 17.7 µM)
MBC [5]: 18.5 µg/mL (≈ 35.5 µM)
MIC [6]: 15.6 µg/mL (≈ 29.9 µM)
MBC ([6]; S. aureus): 31.2 µg/mL (≈ 59.9 µM)
MIC ([7]; S. typhi): 15.6 µg/mL (≈ 29.9 µM)
MBC ([7]; S. typhi): 28.1 µg/mL (≈ 53.9 µM)
Mean Diameter of Inhibition Zone against MDRB [8]: 25 ± 0.15 mm
zone of inhibition at 500 µg/mL [9]: 24 ± 0.2 mm
zone of inhibition at 500 µg/mL [10]: 25 ± 0.81 mm
zone of inhibition at 500 µg/mL [11]: 30 ± 0.5 mm
zone of inhibition at 500 µg/mL [12]: 29 ± 0.55 mm
IC50 [13]: 3.42 ± 0.17 µM
IC50 [14]: 5.09 ± 0.52 µM
MFC [15]: 88.8 µg/mL (≈ 170 µM)
MIC [15]: 55.5 µg/mL (≈ 106 µM)
MFC [16]: 53.1 µg/mL (≈ 102 µM)
MIC [16]: 31.2 µg/mL (≈ 59.9 µM)
Mean Diameter of Inhibition Zone against MDRB [17]: 21 ± 0.21 mm
zone of inhibition at 500 µg/mL [18]: 18 ± 0.15 mm
zone of inhibition at 500 µg/mL [19]: 24 ± 0.12 mm
zone of inhibition at 500 µg/mL [20]: 20 ± 0.16 mm
zone of inhibition at 500 µg/mL [21]: 22 ± 0.56 mm
MBC [22]: 16 µg/mL (≈ 30.6 µM)
MIC [22]: 7.81 µg/mL (≈ 15 µM)
MBC [23]: 11.9 µg/mL (≈ 22.8 µM)
MIC [23]: 6.25 µg/mL (≈ 12 µM)
MBC [24]: 7.41 µg/mL (≈ 14.2 µM)
MIC [24]: 3.9 µg/mL (≈ 7.48 µM)
MBC [25]: 15.6 µg/mL (≈ 29.9 µM)
MIC [25]: 7.81 µg/mL (≈ 15 µM)

COc1ccc(Nc2n[nH]c(N=Cc3c(C)nn(-c4ccccc4)c3Cl)c2C(=O)Nc2ccccc2)cc1 [7b, 5-((5-Chloro-3-methyl-1-phenyl-1H-pyrazol-4-yl)methyleneamino)-3-(p-methoxyphenylamino)-N-phenyl-1H-pyrazole-4-carboxamide]
Mean Diameter of Inhibition Zone against MDRB [1]: 21 ± 0.33 mm
MIC [2]: 31.2 µg/mL (≈ 59.4 µM)
MBC [2]: 59.4 µg/mL (≈ 113 µM)
MIC [3]: 7.81 µg/mL (≈ 14.8 µM)
MBC [3]: 12.5 µg/mL (≈ 23.7 µM)
Fold more potent than Tetracycline (MIC) [4]: 5 fold
MIC [4]: 5.57 µg/mL (≈ 10.6 µM)
MBC [4]: 10.6 µg/mL (≈ 20.1 µM)
MIC [5]: 3.9 µg/mL (≈ 7.41 µM)
MBC [5]: 6.63 µg/mL (≈ 12.6 µM)
Fold more potent than Tetracycline (MIC) ([6]; S. aureus): 32 fold
MIC [6]: 1.95 µg/mL (≈ 3.71 µM)
MBC ([6]; S. aureus): 3.7 µg/mL (≈ 7.03 µM)
Fold more potent than Tetracycline (MIC) [7]: 8 fold
Fold more potent than the standard drug (MBC) ([7]; S. typhi): ~6.6 fold
MIC ([7]; S. typhi): 3.9 µg/mL (≈ 7.41 µM)
MBC ([7]; S. typhi): 6.63 µg/mL (≈ 12.6 µM)
Mean Diameter of Inhibition Zone against MDRB [8]: 20 ± 0.44 mm
zone of inhibition at 500 µg/mL [9]: 24 ± 0.78 mm
zone of inhibition at 500 µg/mL [10]: 21 ± 0.14 mm
zone of inhibition at 500 µg/mL [11]: 28 ± 0.16 mm
zone of inhibition at 500 µg/mL [12]: 25 ± 0.3 mm
Fold against doxorubicin (IC50) ([13]; HepG-2): 0.54 fold
IC50 [13]: 7.18 ± 0.49 µM
IC50 [14]: 4.81 ± 0.25 µM
MFC [15]: 46.9 µg/mL (≈ 89.1 µM)
MIC [15]: 31.2 µg/mL (≈ 59.4 µM)
MFC [16]: 28.1 µg/mL (≈ 53.4 µM)
MIC [16]: 15.6 µg/mL (≈ 29.7 µM)
Mean Diameter of Inhibition Zone against MDRB [26]: 15 ± 0.41 mm
Mean Diameter of Inhibition Zone against MDRB [17]: 18 ± 0.11 mm
zone of inhibition at 500 µg/mL [18]: 17 ± 0.45 mm
zone of inhibition at 500 µg/mL [19]: 23 ± 0.55 mm
zone of inhibition at 500 µg/mL [20]: 22 ± 0.12 mm
zone of inhibition at 500 µg/mL [21]: 21 ± 0.2 mm
MBC [22]: 15.6 µg/mL (≈ 29.7 µM)
MIC [22]: 7.81 µg/mL (≈ 14.8 µM)
MBC [23]: 15.6 µg/mL (≈ 29.7 µM)
MIC [23]: 7.81 µg/mL (≈ 14.8 µM)
MBC [24]: 18.5 µg/mL (≈ 35.2 µM)
MIC [24]: 9.25 µg/mL (≈ 17.6 µM)
MBC [25]: 16 µg/mL (≈ 30.4 µM)
MIC [25]: 8.88 µg/mL (≈ 16.9 µM)
